Experiments:
[1] = tested on: yeast-inflamed pain in rats; test: Analgesic effect on yeast-inflamed pain in rats (Randall-Selitto method); assay type: in vivo, Wistar-Imamichi rats; conditions: Rattus norvegicus, oral, pain threshold 0.5, 1 and 2 hours after administration, read-out: Efficacy Rate (No. of animals in which drug was effective/No. of animals used in test) (converted)
How it was run: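 Male Wistar-Imamichi rats were fasted 16 h and given compound orally in 0.5% tragacanth. Paw inflammation was induced by subcutaneous 20% brewer's yeast, and pressure pain threshold was measured from 4.5 h at 0.5, 1 and 2 h. An animal counted as responding if its threshold exceeded twice the control mean, and efficacy rate followed Blake's method.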

[2] = tested on: scald-induced Pain in rats; test: Scald-induced pain test; assay type: in vivo, Wistar-Imamichi rats; conditions: oral; pain response time, mean of 1 and 2 hours after dosing
Description: The test was conducted in accordance with the method of Iizuka and Tanaka [Jpn. J. Pharmacol. 70, 697, (1967)]. The test compound was administered in the same manner as in Experiment 3. Male Wistar-Imamichi rats (4-5 week old, body weights: approximately 100 g) were used after fasting for 16 hours. The right hind foot of the animal was immersed in hot water at 57° C. for 6 seconds to induce scald under ether-anesthesia. Two hours later, the scald foot of the rat was irritated by immersing in hot water at 40° C. for 5 seconds, and the animal was returned to the cage. […] Lifting up the scalded foot or licking it without coming in contact with the metal cage were considered to be pain responses. Pain response time was determined as the total time of the pain response during the 30-second observation period. […] Pain response time was again measured 1 and 2 hours after dosing and the mean value was determined. Using the mean values, inhibition rates were calculated relative to the control group. ID50 was calculated from the regression line determined by the inhibition rates and the doses.

[3] = tested on: yeast-induced fever; test: Antipyretic effect on yeast-induced fever; assay type: in vivo, Wistar-Imamichi rats; conditions: Dose: 0.4 mg/kg, oral; mean of 1 and 2 hours after dosing
Description: The method of Roszkowski et al. [J. Pharmacol. Exp. Ther. 179, 114, (1971)] was slightly modified to perform the test. The test compound was administered in the same manner as in Experiment 3. Male Wistar-Imamichi rats (6 week old, body weights: approximately 120 g) were used in the test. Yeast (Brewer's yeast, Sigma) was suspended in physiological saline to a concentration of 25%, finely crushed in an agate mortar, and injected subcutaneously into the backs of the rats under ether-anesthesia at a volume of 2 ml/rat. The rats were fasted after the injection of yeast. On the following day (19 hours after the yeast injection), a catheter-type thermistor thermometer (Japan Koden, MGA III) was inserted approximately 5 cm into the rectum to measure the temperature of the animals. […] Rectal temperatures were measured 1 and 2 hours after administration of the test compound, and fever temperature was calculated by subtracting the normal temperature of healthy animals measured simultaneously. Inhibition rate of the group treated with the compound relative to the control group was calculated by using the mean value at 1 and 2 hours after dosing.

[4] = tested on: IL-1β production in human peripheral monocytes; test: Inhibitory effect on IL-1β production in LPS-stimulated human peripheral monocytes; assay type: cell-based; conditions: Monocyte, LPS 10 μg/ml, 20 hours
Description: (§1) (1) Peripheral blood was collected from healthy human volunteers in the presence of heparin. After mixing it with an equal volume of phosphate-buffered saline (PBS, Nissui Pharmaceutical), the mixture was layered onto Ficoll Paque medium (Pharmacia) at the rate of 2:1 and centrifuged at 520×g at 25° C. for 20 minutes. After centrifugation, the monocyte layer was removed and suspended in RPMI 1640 (Nissui Pharmaceutical) containing 10% fetal calf serum (FCS). The monocytes were washed once with the same medium, placed in a plastic Petri dish, pre-treated with human plasma and incubated for 2 hours in the presence of 5% CO2 to cause them to adhere to the dish. After incubation, the Petri dish was washed twice with PBS to remove the non-adherent cells. Thereafter, PBS containing 5% FCS and 0.2% EDTA was added to the Petri dish and the dish was allowed to stand undisturbed for 15 minutes at 4° C. The monocytes were recovered from the dish by pipetting. The cells were finally suspended in RPMI 1640 at a concentration of 1.25×10^5 cells/ml. (2) Culture of Human Monocytes
(§2) A 40 μl solution of the test compound and 40 μl of lipopolysaccharide (LPS; E. coli, 0.26:B6, Difco), adjusted to a final concentration of 10 μg/ml, were added to 320 μl of cell suspension. The resulting mixture was then cultured for 20 hours in the presence of 5% CO2 and the supernatant was removed at the end of cultivation to assay IL-1β and TNFα. The test compound was dissolved in dimethyl sulfoxide and diluted by a factor of 100 with FCS to reach 10 times the final concentration (the final concentrations of dimethyl sulfoxide and FCS were 0.1% and 10%, respectively).
(§3) The amount of IL-1β was measured with a commercially available ELISA kit (Cayman), after diluting the supernatant medium by a factor of 15 or 30 with the ELISA buffer. The amount of TNFα was similarly measured by a ELISA kit (Genzyme) after diluting the supernatant by a factor of 2.
(§4) The IC50 was calculated from the regression line determined by the inhibition rates and the concentrations of the test compound.

[5] = tested on: TNFα production in human peripheral monocytes; test: Inhibitory effect on TNFα production in LPS-stimulated human peripheral monocytes; assay type: cell-based; conditions: Monocyte, LPS 10 μg/ml, 20 hours
Description: as §1, §2, §3, §4

In the case of `COc1ccc(-c2cc(C)cn2-c2ccc(S(N)(=O)=O)cc2)cc1` [Example 52, 2-(4-Methoxyphenyl)-4-methyl-1-(4-sulfamoylphenyl)pyrrole], the responders at 12.5 mg/kg [1] is reported as 100%, the “ID50” value [2] is reported as 1.1 mg/kg and the “Inhibition Rate (%)” value [3] is reported as 82%.
With `Cc1ccc(-c2ccccc2)n1-c1ccc(S(N)(=O)=O)cc1` [Compound A, 5-methyl-2-phenyl-1-(4-sulfamoylphenyl)pyrrole, reference compound] the inhibition at 10 µM [4] was 24.2% and the inhibition at 10 µM [5] was 13.9%.
